The source of these data is patent US20080255193A1, “Pharmaceutical Composition” (priority 2005, published 2008).

Values after ≈ are worked out from the molar mass of the structure shown.

In general, solubility refers to the dissolved amount per volume that the medium holds.

The data set is described as follows: Aqueous solubility of talnetant. The class given is physicochemical. As to conditions: aqueous medium. Here is the method: Talnetant has low aqueous solubility (approximately 0.03 mg/ml at pH 1 and 0.001 mg/ml, at pH 7.0). Typically drugs with low aqueous solubility are absorbed slowly across the walls of the gastrointestinal tract (GIT) due to poor dissolution of the solid in the GIT leading to a small diffusive driving force.

On to `CC[C@H](NC(=O)c1c(O)c(-c2ccccc2)nc2ccccc12)c1ccccc1` [Talnetant, (S)-(−)-N-(α-ethylbenzyl)-3-hydroxy-2-phenylquinoline-4-carboxamide], for which the solubility by setting is: (aqueous buffer, pH 7.0) roughly 1 µg/mL (≈ 2.61 µM); (pH 1, simulated gastric fluid) roughly 30 µg/mL (≈ 78.4 µM).
